The results in this text go back to patent publication US20230128609A1, “TUMOR SUPPRESSION BY MODULATION OF NON-CANONICAL AUTOPHAGY (LAP) IN MYELOID CELLS” (St. Jude Children's Research Hospital, priority 2017, published 2023).

In this assay the test system is RAW cells expressing Venus-LC3. The assay is described as follows: Evaluation of LAP, as assessed by LC3-II lipidation upon zymozan stimulation, by flow cytometry. Format: cell-based. The settings on record: RAW cells expressing Venus-LC3 stimulated with zymozan-Alexa594 (ZYM) for 1 h, treatment started 30 min prior to stimulation, digitonin-permeabilized cells.

Description: (FIG. 9D) Evaluation of LAP, as assessed by LC3-II lipidation upon stimuli. RAW cells expressing Venus-LC3 were stimulated with ZYM for 1 h, treated with digitonin and accumulation of lipidated LC3-II in permeabilized cells was measured by flow cytometry. (FIG. 9E) Quantification of FIG. 9D, in MFI. […] Flow cytometry analysis. At the indicated time points, GFP-LC3+ cells can be collected, washed once with FACS buffer, and permeabilized with digitonin (Sigma, 200 g ml-1) for 15 min on ice. Cells can be washed 3 times with FACS buffer and analysed by flow cytometry for membrane-bound GFP—LC3—II.

As to `c1ccc2c(c1)[I+]c1ccccc1-2` [DPI, diphenyleneiodonium], the “LAP activity in vitro (LC3-II lipidation upon stimuli)” value is on record as “abrogates LAP activity”.

As for `COc1cc(C(C)=O)ccc1O` [apocynin], the “LAP activity in vitro (LC3-II lipidation upon stimuli)” value is “abrogates LAP activity”.
